“Also recorded” adds a separate entry of the source.
What was measured:
a variety of bacteria = assay: Antimicrobial activity, serial two-fold agar dilution, overall; format: cell-based
Protocol: Antimicrobial activity of BMY-41339 was determined for a variety of bacteria by the serial two-fold agar dilution method.

P388 leukemia = assay: In vivo antitumor activity, P388 leukemia implanted ip, drug ip; set-up: species or system mouse
Protocol: The in vivo antitumor activity of BMY-41339 was determined in the standard P388 mouse leukemia model. A summary of the experiments performed using BMY-41339 is provided below.
DBA/2 and (Balb/c × DBA/2)F1 (CDF1) hybrid mice were purchased from Charles River Breeding Co. (Wilmington, MA). They were provided food and water ad libitum.
The P388 murine ascites leukemia was maintained by weekly in vivo passage in DBA/2 mice.
Esperamicin A1 and BMY-41339 were dissolved in ethanol. Further dilutions were made with 0.9% NaCl (saline) until the ethanol concentration (v/v) was 10%. All administrations were made, therefore, in a 10% ethanol in saline vehicle. For ip injections, the concentration of compound was adjusted according to the average initial body weight of each group of mice to be injected such that the desired dose would be contained in a 0.5 ml injection volume. The same procedure was used for iv compound administration except the injection volume was 0.2 ml.
Antitumor experiments were initiated by implanting […] P388 leukemia cells either ip or iv into CDF1 mice. BMY-41339 and esperamicin A1 (included as a positive reference compound), were injected either ip in mice implanted ip with P388, or iv in mice implanted iv with P388 on Day 2 post-implant only Eight different dose levels of BMY-41339, at two-fold increments, were evaluated in each of the two experiments performed.
A % T/C value of ≥ 125 was considered indicative of activity in these models.

[1] = Exp. 8102, ip, 0.025 mg/kg/dose
[2] = Exp. 8109, ip, 0.025 mg/kg/dose

C=C(OC)C(=O)Nc1cc(OC)c(OC)cc1C(=O)OC1CC(OC2C(=O)C(NC(=O)OC)=C3C(=CCSSSSC)C2(O)C#CC=CC#CC3OC2OC(C)C(NOC3CC(O)C(SC)C(C)O3)C(O)C2OC2CC(OC)C(NC(C)C)CO2)OC(C)C1O (centres unmarked) [BMY-41339]
antibacterial activity spectrum (a variety of bacteria): broad spectrum of antibacterial activity; also recorded: antimicrobial activity against a broad spectrum of bacteria | T/C (P388 leukemia; Exp. 8102, ip, 1.6 μg/kg): 145% | T/C (P388 leukemia; Exp. 8102, ip, 3.2 μg/kg (highest dose tested)): 140% | % T/C (P388 leukemia; [1]): 110% | Avg. wt. change on day 6 (P388 leukemia; [1]): 0.8 grams | Survivors on Day 5 (P388 leukemia; [1]): 6/6 | % T/C (P388 leukemia; Exp. 8102, ip, 0.05 mg/kg/dose): 110% | Avg. wt. change on day 6 (P388 leukemia; Exp. 8102, ip, 0.05 mg/kg/dose): 1.3 grams | Survivors on Day 5 (P388 leukemia; Exp. 8102, ip, 0.05 mg/kg/dose): 6/6 | % T/C (P388 leukemia; Exp. 8102, ip, 0.1 mg/kg/dose): 120% | Avg. wt. change on day 6 (P388 leukemia; Exp. 8102, ip, 0.1 mg/kg/dose): 0.7 grams | Survivors on Day 5 (P388 leukemia; Exp. 8102, ip, 0.1 mg/kg/dose): 6/6 | % T/C (P388 leukemia; Exp. 8102, ip, 0.2 mg/kg/dose): 140% | Avg. wt. change on day 6 (P388 leukemia; Exp. 8102, ip, 0.2 mg/kg/dose): 0.6 grams | Survivors on Day 5 (P388 leukemia; Exp. 8102, ip, 0.2 mg/kg/dose): 6/6 | % T/C (P388 leukemia; Exp. 8102, ip, 0.4 mg/kg/dose): 135% | Avg. wt. change on day 6 (P388 leukemia; Exp. 8102, ip, 0.4 mg/kg/dose): 0.6 grams | Survivors on Day 5 (P388 leukemia; Exp. 8102, ip, 0.4 mg/kg/dose): 6/6 | % T/C (P388 leukemia; Exp. 8102, ip, 0.8 mg/kg/dose): 140% | Avg. wt. change on day 6 (P388 leukemia; Exp. 8102, ip, 0.8 mg/kg/dose): 0.4 grams | Survivors on Day 5 (P388 leukemia; Exp. 8102, ip, 0.8 mg/kg/dose): 6/6 | % T/C (P388 leukemia; Exp. 8102, ip, 1.6 mg/kg/dose): 145% | Avg. wt. change on day 6 (P388 leukemia; Exp. 8102, ip, 1.6 mg/kg/dose): -0.1 grams | Survivors on Day 5 (P388 leukemia; Exp. 8102, ip, 1.6 mg/kg/dose): 6/6 | % T/C (P388 leukemia; Exp. 8102, ip, 3.2 mg/kg/dose): 140% | Avg. wt. change on day 6 (P388 leukemia; Exp. 8102, ip, 3.2 mg/kg/dose): 0.7 grams | Survivors on Day 5 (P388 leukemia; Exp. 8102, ip, 3.2 mg/kg/dose): 6/6 | % T/C (P388 leukemia; Exp. 8102, ip, single injections above 0.1 μg/kg, Day 2 only): ≥ 135% | overt drug-associated toxicity (e.g. excessive body weight loss, early deaths) (P388 leukemia; Exp. 8102, ip, up to 3.2 μg/kg): no obvious sign of overt drug-associated toxicity | % T/C (P388 leukemia; [2]): 110% | Avg. wt. change on day 6 (P388 leukemia; [2]): 0.8 grams | Survivors on Day 5 (P388 leukemia; [2]): 6/6 | T/C (P388 leukemia; Exp. 8109, ip, 32 μg/kg (highest dose tested)): 171% | % T/C (P388 leukemia; Exp. 8109, ip, 0.05 mg/kg/dose): 110% | Avg. wt. change on day 6 (P388 leukemia; Exp. 8109, ip, 0.05 mg/kg/dose): 1.3 grams | Survivors on Day 5 (P388 leukemia; Exp. 8109, ip, 0.05 mg/kg/dose): 6/6 | % T/C (P388 leukemia; Exp. 8109, ip, 0.1 mg/kg/dose): 120% | Avg. wt. change on day 6 (P388 leukemia; Exp. 8109, ip, 0.1 mg/kg/dose): 0.7 grams | Survivors on Day 5 (P388 leukemia; Exp. 8109, ip, 0.1 mg/kg/dose): 6/6 | % T/C (P388 leukemia; Exp. 8109, ip, 0.2 mg/kg/dose): 140% | Avg. wt. change on day 6 (P388 leukemia; Exp. 8109, ip, 0.2 mg/kg/dose): 0.6 grams | Survivors on Day 5 (P388 leukemia; Exp. 8109, ip, 0.2 mg/kg/dose): 6/6 | % T/C (P388 leukemia; Exp. 8109, ip, 0.4 mg/kg/dose): 135% | Avg. wt. change on day 6 (P388 leukemia; Exp. 8109, ip, 0.4 mg/kg/dose): 0.6 grams | Survivors on Day 5 (P388 leukemia; Exp. 8109, ip, 0.4 mg/kg/dose): 6/6 | % T/C (P388 leukemia; Exp. 8109, ip, 0.8 mg/kg/dose): 140% | Avg. wt. change on day 6 (P388 leukemia; Exp. 8109, ip, 0.8 mg/kg/dose): 0.4 grams | Survivors on Day 5 (P388 leukemia; Exp. 8109, ip, 0.8 mg/kg/dose): 6/6 | % T/C (P388 leukemia; Exp. 8109, ip, 1.6 mg/kg/dose): 145% | Avg. wt. change on day 6 (P388 leukemia; Exp. 8109, ip, 1.6 mg/kg/dose): -0.1 grams | Survivors on Day 5 (P388 leukemia; Exp. 8109, ip, 1.6 mg/kg/dose): 6/6 | % T/C (P388 leukemia; Exp. 8109, ip, 3.2 mg/kg/dose): 140% | Avg. wt. change on day 6 (P388 leukemia; Exp. 8109, ip, 3.2 mg/kg/dose): 0.7 grams | Survivors on Day 5 (P388 leukemia; Exp. 8109, ip, 3.2 mg/kg/dose): 6/6 | increases in lifespan (P388 leukemia; Exp. 8109, ip, 0.5 -32 μg/kg): active increases | activity against P388 leukemia (P388 leukemia; conclusion, confirmed experimental results): active against P388 leukemia
